≈ marks a conversion by molar mass, not a printed value.
What was measured:
physchem [1] = conditions: water
[2] = at 20 °C; cited from earlier work
physchem [3] = conditions: aqueous buffer, thermodynamic from solid
Procedure: (§1) The calculated amount of Leucine was weighted into a 500 ml flask. After addition of 250 ml deionized water the solution is sterilized by autoclavation. Thereafter 250 ml of a 25% (w/v) ammonia solution is added and determined whether the Leucine was dissolved or not. After dissolution of the Leucine the final volume of the solution was determined.

[4] = Determination of solubility of Leucine in an ammonia solution; conditions: for soluble: 250 ml water + 250 ml 25% (w/v) ammonia solution
Procedure: as §1

SMILES: NC(=O)CC[C@H](N)C(=O)O [glutamine]
- solubility (physchem [1]; 18 °C): < 50 mg/mL

SMILES: N[C@@H](Cc1c[nH]cn1)C(=O)O [histidine]
- solubility (physchem [1]; 20 °C): < 50 mg/mL

SMILES: CC[C@H](C)[C@H](N)C(=O)O [isoleucine]
- solubility in water [2]: 40 mg/mL (≈ 305 mM)
- solubility (physchem [1]; 20 °C): < 50 mg/mL

SMILES: CC(C)C[C@H](N)C(=O)O [leucine]
- solubility (physchem [1]; 20 °C): < 50 mg/mL
- solubility (physchem [3]): 76 mg/mL (≈ 579 mM)
- solubility in alkaline solution relative to solubility in water ([4]; 12.5% (w/v) ammonia versus water at 20 °C): more than three times
- soluble ([4]; Leucine concentration 17 g/l): yes
- soluble ([4]; Leucine concentration 18 g/l): yes
- soluble ([4]; Leucine concentration 19 g/l): yes
- soluble ([4]; Leucine concentration 20 g/l): yes
- soluble ([4]; Leucine concentration 21 g/l): yes
- soluble ([4]; Leucine concentration 25 g/l): yes
- soluble ([4]; Leucine concentration 30 g/l): yes
- soluble ([4]; Leucine concentration 40 g/l): yes
- soluble ([4]; Leucine concentration 50 g/l): yes
- soluble ([4]; Leucine concentration 60 g/l): yes
- soluble ([4]; Leucine concentration 70 g/l): yes
- soluble ([4]; Leucine concentration 71 g/l): yes
- soluble ([4]; Leucine concentration 72 g/l): yes
- soluble ([4]; Leucine concentration 73 g/l): yes
- soluble ([4]; Leucine concentration 74 g/l): yes
- soluble ([4]; Leucine concentration 75 g/l): yes
- soluble ([4]; Leucine concentration 76 g/l): yes
- soluble ([4]; Leucine concentration 77 g/l): no

SMILES: CSCC[C@H](N)C(=O)O [methionine]
- solubility (physchem [1]; 20 °C): < 50 mg/mL

SMILES: N[C@@H](Cc1ccccc1)C(=O)O [phenylalanine]
- solubility (physchem [1]; 20 °C): < 50 mg/mL

SMILES: N[C@@H](Cc1c[nH]c2ccccc12)C(=O)O [tryptophane]
- solubility in water [2]: 10 mg/mL (≈ 49 mM)
- solubility (physchem [1]; 20 °C): < 50 mg/mL

SMILES: CC(C)[C@H](N)C(=O)O [valine]
- solubility in water [2]: 88 mg/mL (≈ 751 mM)
